Data on 9 compounds can be found in ChEMBL document CHEMBL1201862, “PubChem BioAssay data set” (2004).

Test systems include A549; ACHN; DU-145; K562; MCF7; MDA-MB-435; MOLT-4; NCI-H226; NCI-H23; OVCAR-5; OVCAR-8; RXF 393; SF-539; SK-MEL-28; SK-OV-3; SNB-75; U-251.
Holding throughout (test): inhibition of tumour cell growth, NCI panel, 48 h

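Values below derive from 48-hour exposures of cells grown in 96-well plates, with endpoints linearly interpolated between the two concentrations bracketing the appropriate inhibition level. Abbreviation: GI50, concentration required for 50% inhibition of growth.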 Active and inactive are the calls of the source. Cut-off read from the data, not from the text of the source: active = GI50 up to about 1.1 µM and inactive = higher.

Regarding `O=S1(=O)CCN(Cc2ccccc2)/C1=N\S(=O)(=O)c1ccc(Cl)cc1`, the GI50 in the assay with A549 is 65.3 µM (inactive); with ACHN it was 18.8 µM (inactive); with DU-145, 20.5 µM (inactive); in the assay with K562, 35.6 µM (inactive); in the assay on MCF7 it was 22.8 µM (inactive); with MDA-MB-435, 19.1 µM (inactive). Also, the GI50 in the assay on MOLT-4 was 20.5 µM (inactive); in the assay on NCI-H226, 17.8 µM (inactive); with NCI-H23, 18.9 µM (inactive); in the assay on OVCAR-5, 18.1 µM (inactive); with OVCAR-8, 17 µM (inactive); in the assay on RXF 393, 19.5 µM (inactive). In addition, the GI50 was 18.7 µM (inactive) in the assay on SF-539; 18.3 µM (inactive) with SK-MEL-28; 47.4 µM (inactive) in the assay with SK-OV-3; 21.2 µM (inactive) in the assay on SNB-75; 18 µM (inactive) with U-251.
Regarding `OC1C#CCSCC#C/C=C\1` (configuration not stated), the GI50 in the assay on ACHN was > 100 µM (inactive); with DU-145, > 100 µM (inactive); with K562 it was 17.9 µM (inactive); in the assay with MCF7, 53.3 µM (inactive); in the assay on MDA-MB-435, 56 µM (inactive); in the assay on NCI-H226, > 100 µM (inactive). Also, the GI50 was 80.4 µM (inactive) in the assay with NCI-H23; > 100 µM (inactive) in the assay on OVCAR-5; 3.72 µM (inactive) in the assay on OVCAR-8; 18 µM (inactive) with RXF 393; > 100 µM (inactive) with SF-539; 89.5 µM (inactive) with SK-MEL-28. For the same compound, the GI50 in the assay with SK-OV-3, in the assay on SNB-75 and in the assay on U-251 was > 100 µM (inactive) in each case.
`CCCN1C(=O)CN(S(=O)(=O)c2ccc(Cl)cc2)C1=O`: the GI50 with A549, with ACHN, with DU-145, with K562, with MCF7 and in the assay with MDA-MB-435 was > 100 µM (inactive) throughout. Further, the GI50 in the assay on NCI-H226, with NCI-H23, in the assay on OVCAR-5, with RXF 393, in the assay with SF-539 and in the assay with SK-MEL-28 was > 100 µM (inactive) throughout. For the same compound, the GI50 in the assay with SK-OV-3, in the assay with SNB-75 and in the assay with U-251 was > 100 µM (inactive) each time.
As to `CC(C)(Cl)C(Br)CCC(Br)(CCl)C(Cl)CBr` (configuration not stated), the GI50 in the assay on ACHN, in the assay on DU-145, in the assay on K562, in the assay with MCF7, in the assay on MDA-MB-435 and in the assay on MOLT-4 was > 10 µM (inactive) throughout. Further, the GI50 with NCI-H226, in the assay with NCI-H23, with OVCAR-5, in the assay with OVCAR-8, in the assay on RXF 393 and with SF-539 was > 10 µM (inactive) each time. Also, the GI50 with SK-MEL-28, in the assay on SK-OV-3, in the assay with SNB-75 and in the assay with U-251 was > 10 µM (inactive) in each case.
For the compound `O=C(/C=C/C=C/c1ccccc1)c1ccccc1`, the GI50 with A549 is 18.1 µM (inactive); in the assay on DU-145, 17.3 µM (inactive); with K562, 17.1 µM (inactive); with MCF7, 16.3 µM (inactive); in the assay with MDA-MB-435 it was 17.7 µM (inactive); in the assay with MOLT-4 it was 14.6 µM (inactive). The GI50 was 16.7 µM (inactive) in the assay on NCI-H226; 14.7 µM (inactive) in the assay on OVCAR-5; 13.4 µM (inactive) in the assay on OVCAR-8; 17.6 µM (inactive) in the assay on RXF 393; 17.3 µM (inactive) in the assay on SF-539; 17.5 µM (inactive) in the assay with SK-MEL-28. The GI50 in the assay on SK-OV-3 was 22.2 µM (inactive); in the assay with SNB-75, 17.8 µM (inactive); with U-251, 14 µM (inactive).
`CCCc1nc2c(n1CC)C(=O)c1ccccc1C2=O`: the GI50 with A549 is 46.5 µM (inactive); in the assay on ACHN, 40.3 µM (inactive); in the assay with DU-145 it was 74.5 µM (inactive); in the assay on K562, 31.1 µM (inactive); with MCF7 it was 51.1 µM (inactive); in the assay on MDA-MB-435, 17.5 µM (inactive). The GI50 in the assay with MOLT-4 is 17 µM (inactive); in the assay on NCI-H226, 56 µM (inactive); in the assay with NCI-H23, 39.4 µM (inactive); in the assay on OVCAR-5, > 100 µM (inactive); with RXF 393 it was 26.9 µM (inactive); with SF-539 it was 63.5 µM (inactive). Further, the GI50 with SK-MEL-28 is 82.2 µM (inactive); in the assay with SK-OV-3, 21.7 µM (inactive); in the assay with SNB-75, 24.8 µM (inactive); with U-251, 59.3 µM (inactive).
For `COc1cc2cc(C(=O)N3CC(COS(C)(=O)=O)c4ccc(O)cc43)[nH]c2c(OC)c1OC` (configuration not stated), the GI50 in the assay on A549, with ACHN, with DU-145, with K562, with MCF7 and in the assay with MDA-MB-435 was < 0.0001 µM (active) each time. In addition, the GI50 with MOLT-4 was < 0.0001 µM (active); in the assay with NCI-H226, 0.000109 µM (active); in the assay with NCI-H23, < 0.0001 µM (active); in the assay with OVCAR-5, 0.000536 µM (active); with OVCAR-8, < 0.0001 µM (active); with RXF 393 it was < 0.0001 µM (active). The GI50 in the assay on SF-539 is < 0.0001 µM (active); in the assay with SK-MEL-28, < 0.0001 µM (active); in the assay with SNB-75 it was 0.000172 µM (active); in the assay with U-251 it was < 0.0001 µM (active).
In the case of `COc1cccc2c1OC1(C=C2)Oc2ccccc2C(=O)N1C` (configuration not stated), the GI50 with A549 is 41.6 µM (inactive); with ACHN, 35.2 µM (inactive); in the assay with DU-145, 34 µM (inactive); in the assay on K562, 17.5 µM (inactive); in the assay with MCF7 it was 37.8 µM (inactive); with MDA-MB-435 it was 21.6 µM (inactive). For the same compound, the GI50 in the assay with MOLT-4 is 15.7 µM (inactive); with NCI-H226, 20.9 µM (inactive); in the assay with NCI-H23, 31.2 µM (inactive); in the assay with OVCAR-5, 78.3 µM (inactive); in the assay with OVCAR-8, 4.68 µM (inactive); in the assay on RXF 393, 25.5 µM (inactive). The GI50 in the assay on SK-MEL-28 was 59 µM (inactive); with SK-OV-3, 25.9 µM (inactive); in the assay on SNB-75, 16.3 µM (inactive); with U-251, 39.8 µM (inactive).
Consider `S=C1CC(c2ccc(Cl)cc2)Sc2ccccc2N1` (configuration not stated), for which the GI50 with A549 is 55.5 µM (inactive); with ACHN, 71.8 µM (inactive); in the assay with DU-145 it was 51.4 µM (inactive); in the assay with K562 it was > 10 µM (inactive); with MCF7 it was 39.4 µM (inactive); with MDA-MB-435, 87.1 µM (inactive). Also, the GI50 is > 10 µM (inactive) in the assay with MOLT-4; 50.5 µM (inactive) with NCI-H226; 37.2 µM (inactive) with NCI-H23; > 100 µM (inactive) in the assay on OVCAR-5; > 100 µM (inactive) in the assay on OVCAR-8; 16.2 µM (inactive) in the assay on RXF 393. For the same compound, the GI50 in the assay with SK-MEL-28 was 25.2 µM (inactive); in the assay on SK-OV-3, 22.5 µM (inactive); with SNB-75, > 10 µM (inactive); in the assay on U-251 it was 41.3 µM (inactive).
